Key:
[1] = tested on: 797 cell line; experiment: Cell viability assay; assay type: cell-based; conditions: read-out: 797 cellular EC50 (cellular potency)
[2] = molecular target: BRD4 (Homo sapiens, UniProt O60885); experiment: AlphaScreen BRD binding assay; conditions: calculated from BRD4 potency

Compound	EC50 [1]	ligand efficiency (as defined by Hopkins et al.) [2]
Cc1sc2c(c1C)C(c1ccc(Cl)cc1)=N[C@@H](CC(=O)OC(C)(C)C)c1nnc(C)n1-2 [Compound 1]	71.7 nM	–
Cc1noc(C)c1-c1ccc(C=O)cc1 [Compound 8]	–	0.54
